The nature of data set [1]: Dissolution test (USP paddle method). Conditions: phosphate buffer pH 6.8, 900 mL, 100 rpm, 37 °C. The format is physicochemical. The method, then:
The dissolution of CRT, PMs, and ICs was evaluated using the USP (version 26) paddle method with a dissolution tester (Tianjin University Electronics Co., Ltd., Tianjin, China). The dissolution medium was phosphate buffer (pH 6.8, 900 mL); the paddles were rotated at 100 rpm at 37.0 ± 0.5 °C. A sample volume of 5 mL was withdrawn from the dissolution medium at predetermined sampling points, filtered using a […] microporous filter membrane, and analyzed via HPLC. All dissolution tests were performed in triplicate.

A short description of a further data set: Solubility determination. The data set is classed as physicochemical. Conditions: thermodynamic from solid, 25 °C. The method, then: Drug solubility at 25 ± 0.5 °C was determined in water and phosphate buffer (pH 6.8). Excesses of CRT and each IC were added to each fluid and placed in a thermostatic water bath in the dark at 25 ± 0.5 °C with a constant shaking rate of 100 rpm for 72 h. After the equilibrium state was reached, the solutions were centrifuged for 15 min, and 2 mL of the supernatant was diluted with an appropriate amount of methanol. Drug concentrations were determined using HPLC.

Data set [2] in a line: Effect of storage on stability (heat, light, moisture). The format is physicochemical. The settings on record: 60 ± 0.5 °C, 10 days. The method, then: All samples were sealed in transparent glass bottles and divided into three groups, each containing CRT/α-CD IC (500 mg), CRT/HP-β-CD IC (500 mg), CRT/γ-CD IC (500 mg), and intact CRT (500 mg). The first group was stored at 60 ± 0.5 °C for 10 days. The second group was stored at 25 ± 0.5 °C with a light intensity of 4500 ± 500 lx for 10 days. The third group was stored at 25 ± 0.5 °C with 75% relative humidity for 10 days. The CRT contents were sampled and measured on days 0, 5, and 10. Each test was repeated at least three times.

Data set [3] in a line: Pharmacokinetics study after intragastric administration. The settings on record: Sprague-Dawley, rat, plasma, po, SD rats, 20 mg/kg intragastric, n = 6. The data set is classed as in vivo. The method, then:
Twenty-four SD rats were randomly divided into four groups and administered CRT/α-CD IC, CRT/HP-β-CD IC, CRT/γ-CD IC, or intact CRT. All rats were fasted for 12 h and only provided water before experiments. All samples at a dose of 20 mg/kg body weight were administered intragastrically. Blood samples (0.4 mL) were collected from the orbital venous plexus at predetermined time points (0.083, 0.167, 0.25, 0.5, 1, 2, 4, 6, 8, 12, and 24 h) into tubes containing heparin sodium. The blood samples were centrifuged immediately at 4000 rpm for 15 min; the supernatant layer of plasma was separated and stored at 4 °C for 24 h. CRT in plasma was extracted with 600 μL methanol with an internal standard of 10 μL ATRA from 200 μL plasma samples and centrifuged at 10,000 rpm for 15 min at 4 °C. The supernatant layer was transferred to a new tube, concentrated to remove solvents under the LSE-1K vacuum centrifuge concentrator (JTLIANGYOU, Changzhou, China), and redissolved in 200 μL of methanol for analysis. The concentration of CRT was determined using an HPLC (Waters HPLC system consisting of a 2695–2487 UV detector, Milford, MA, USA) using a COSMOSIL-C18 (150 mm × 4.6 mm, 5 μm) column with a detection wavelength of 424 nm. The injection volume was 20 μL, the column temperature was 35 °C, the mobile phase was methanol with water and glacial acetic acid in a ratio (v:v:v) of 92:7.7:0.3, and the flow rate was 1 mL/min. The pharmacokinetic parameters were calculated using DAS 2.0. Relative bioavailability percentage was calculated as follows:Relative bioavailability (%) = (AUC0–∞ IC/AUC0–∞ CRT) × 100 (2)

Details of data set [4]: method as in PMID 16131146. The settings on record: mice, oral, cited from earlier work.
Details of data set [5]: method as in PMID 21112749, PMID 21398065. Conditions: humans, CRT or saffron tea orally, cited from earlier work.

In brackets after ≈: the same amount, converted by molar mass. Where two headings read alike, the source gives them in different places.

A word on the solubility: it is the dissolved amount per volume that the medium holds. What is called AUC(0-inf) is total exposure, with the tail of the curve extrapolated. A low value points to less exposure. For orientation: Cmax means the peak of the concentration-time curve. A word on the Tmax: it is the time from dosing to the highest level. The term half-life denotes the time needed for the level to fall by half in the phase considered. A low value points to fast loss. For the molecule `CC(/C=C/C=C(\C)C(=O)O)=C\C=C\C=C(C)\C=C\C=C(/C)C(=O)O` [CRT, Crocetin], the “cumulative dissolution rate at 180 min” value in data set [1] is 13%. The solubility at 72 h in the data set “Solubility determination” (phosphate buffer, pH 6.86, aqueous buffer, buffer salt, read-out: Solubility of CRT in pH6.86 Buffer Salt) came to 1.84 ± 0.11 µg/mL. In addition, the solubility at 72 h in the data set “Solubility determination” (water, read-out: Solubility of CRT in H2O) turned out to be 1.23 ± 0.07 µg/mL (≈ 3.75 µM). In addition, the “relative content (retention) of CRT after thermal treatment” value in data set [2] was found to be 80%. Besides, in data set [3], the AUC(0-inf) was determined as 2660 ± 196 ng·h/mL, the highest level (Cmax) was 545 ± 23 ng/mL, the Tmax is 2 h and the half-life is 2.06 ± 0.237 h. Further, the AUC(0-t) in data set [3] (read-out: AUC0–12) is 2410 ± 163 ng·h/mL. For the same molecule, the MRT last in data set [3] (read-out: MRT0–12) worked out at 3.03 ± 0.082 h. Besides, the “time of highest plasma concentration” value in data set [4] (dose of 117.2 mg/mL) is reported as “approximately 2 h”. Further, the “highest plasma concentration of CRT” value in data set [4] is 1249.3 ± 788.1 ng/mL. Moreover, the “concentrations of CRT in the blood” value in data set [5] (based on the dose) was 100.9 to 279.7 ng/mL. The Tmax result in data set [5] is “approximately 4.6 h”.

The values are drawn from paper PMC10747661, “Preparation of trans-Crocetin with High Solubility, Stability, and Oral Bioavailability by Incorporation into Three Types of Cyclodextrins” (Pharmaceutics, 2023).
